Values of other authors as cited in US7968117B1, “Externally triggered microcapsules” (The United States of America as represented by the …, priority 1994, dated 2011).

Key:
[1] = dogs' brain, artificially heated region
[2] = preferred value within the printed range

| Compound | heating temperature of the brain regions showing extravasation of Eb [1] | HLB (preferred) [2] |
| --- | --- | --- |
| Cc1cc(-c2ccc(/N=N/c3ccc4c(S(=O)(=O)[O-])cc(S(=O)(=O)[O-])c(N)c4c3O)c(C)c2)ccc1/N=N/c1ccc2c(S(=O)(=O)[O-])cc(S(=O)(=O)[O-])c(N)c2c1O.[Na+].[Na+].[Na+].[Na+] [free Eb, Evans blue dye] | greater than 44 °C | – |
| CCCCCCCCCCCCCCCCCC(=O)OCC(O)CO (centres unmarked) [Glycerol Monostearate (gms), Glycerol Monostearate] | – | (3.8 preferred) |
